Values quoted from earlier work in patent US5756661A, “Pentaclethra macroloba derived substances having insecticide, agglutination and aminopeptidase inhibition activity” (Pioneer Hi-Bred International, Inc., priority 1996, dated 1998).

System: aminopeptidases
Conditions: references 13, 1

Row | SMILES | inhibition of the activity of several aminopeptidases
1 | CC(C)C[C@H](NC(=O)[C@@H](O)[C@H](N)Cc1ccccc1)C(=O)O [bestatin] | completely inhibit
2 | CC(C)C[C@@H](N)[C@H](O)C(=O)N[C@H](C(=O)N[C@H](C(=O)N[C@@H](CC(=O)O)C(=O)O)C(C)C)C(C)C [amastatin] | completely inhibit
